PubChem BioAssay (NCI)
Where “and” joins values, the source holds several entries; their conditions need not be identical. Identical values can stand only once.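 Five concentrations, 48 hours, 96-well plates. GI50 = concentration required for 50% inhibition of growth. Definition used: TGI = concentration required for complete inhibition of growth.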

How the values were obtained:
Assay in all cases: NCI tumour cell line growth inhibition, 48 h
[1] = test system: KM12 colon
[2] = test system: SK-OV-3 ovarian
[3] = test system: LOX IMVI melanoma
[4] = test system: MALME-3M melanoma
[5] = test system: SK-MEL-2 melanoma
[6] = test system: XF 498 CNS
[7] = test system: SR leukemia
[8] = test system: NCI-H460 lung
[9] = test system: KM20L2 colon
[10] = test system: COLO 205 colon
[11] = test system: SK-MEL-5 melanoma
[12] = test system: SNB-78 CNS
[13] = test system: DLD-1 colon
[14] = test system: SK-MEL-28 melanoma
[15] = test system: RXF 393 renal
[16] = test system: NCI-H226 lung
[17] = test system: UO-31 renal
[18] = test system: DMS 273 small cell lung
[19] = test system: IGROV1 ovarian
[20] = test system: SF-539 CNS
[21] = test system: 786-0 renal
[22] = test system: OVCAR-8 ovarian
[23] = test system: CAKI-1 renal
[24] = test system: TK-10 renal
[25] = test system: ACHN renal
[26] = test system: M19-MEL melanoma
[27] = test system: A549 NSCLC
[28] = test system: HCT-15 colon
[29] = test system: OVCAR-4 ovarian
[30] = test system: SNB-19 CNS
[31] = test system: HCC-2998 colon
[32] = test system: M14 melanoma
[33] = test system: LXFL 529 NSCLC
[34] = test system: HL-60(TB) leukemia
[35] = test system: EKVX NSCLC
[36] = test system: HOP-62 NSCLC
[37] = test system: HCT-116 colon
[38] = test system: HOP-92 NSCLC
[39] = test system: HOP-18 NSCLC
[40] = test system: U251 CNS
[41] = test system: OVCAR-3 ovarian
[42] = test system: NCI-H522 lung
[43] = test system: OVCAR-5 ovarian
[44] = test system: RXF-631 renal
[45] = test system: SW-620 colon
[46] = test system: A498 renal
[47] = test system: NCI-H23 lung
[48] = test system: SNB-75 CNS
[49] = test system: UACC-257 melanoma
[50] = test system: K-562 leukemia
[51] = test system: MOLT-4 leukemia
[52] = test system: SN12C renal
[53] = test system: HT29 colon
[54] = test system: CCRF-CEM leukemia

O=C(CCN1CCN(c2cccc(Cl)c2)CC1)N1CCc2c([nH]c3ccccc23)C1c1cccnc1 (stereo not drawn)
GI50 [1]: 5.04 µM
TGI [1]: 15.9 µM
GI50 [2]: 13.4 µM
TGI [2]: 28.8 µM
GI50 [3]: 6.5 µM
TGI [3]: 20.5 µM
GI50 [4]: 14.9 µM
TGI [4]: 36.8 µM
GI50 [5]: 5.24 µM
TGI [5]: 18.2 µM
TGI [6]: 9.57 µM
GI50 [7]: 5.06 µM
TGI [7]: 7.83 µM and 27 µM
TGI [8]: 16.9 µM
GI50 [9]: 4.71 µM
TGI [9]: 20.1 µM
GI50 [10]: 4.83 µM
TGI [10]: 15.6 µM
GI50 [11]: 7.72 µM
TGI [11]: 21.9 µM
TGI [12]: 9.97 µM
GI50 [13]: 8.09 µM
TGI [13]: 25.4 µM
TGI [14]: 26.9 µM
GI50 [15]: 6.31 µM
TGI [15]: 21 µM
TGI [16]: 49.9 µM
GI50 [17]: 4.7 µM
TGI [17]: 16.2 µM
GI50 [18]: 6.6 µM
TGI [18]: 19.1 µM
GI50 [19]: 18.7 µM
TGI [19]: > 100 µM
TGI [20]: 31.2 µM
GI50 [21]: 5.96 µM
TGI [21]: 18.7 µM
TGI [22]: 21.7 µM
TGI [23]: 14.3 µM
GI50 [24]: 2.53 µM
TGI [24]: 10.9 µM
GI50 [25]: 6.34 µM
TGI [25]: 21.6 µM
TGI [26]: 26.4 µM
TGI [27]: 19 µM
GI50 [28]: 5.18 µM
TGI [28]: 18 µM
GI50 [29]: 4.23 µM
TGI [29]: 18.4 µM
TGI [30]: 26.9 µM
GI50 [31]: 2.91 µM
TGI [31]: 4.04 µM and 8.05 µM
GI50 [32]: 6.06 µM
TGI [32]: 9.22 µM and 19 µM
GI50 [33]: 6.24 µM
TGI [33]: 19.6 µM
GI50 [34]: 3.19 µM
TGI [34]: 5.53 µM and 11.2 µM
TGI [35]: 26.3 µM
TGI [36]: 23.9 µM
GI50 [37]: 6.36 µM
TGI [37]: 18.3 µM
GI50 [38]: 12.3 µM
TGI [38]: 9.52 µM and 35.7 µM
TGI [39]: 32.5 µM
GI50 [40]: 9.96 µM
TGI [40]: 21.5 µM
GI50 [41]: 7.67 µM
TGI [41]: 8.77 µM and 20.1 µM
GI50 [42]: 4.85 µM
TGI [42]: 19.1 µM
GI50 [43]: 5.75 µM
TGI [43]: 23.3 µM
GI50 [44]: 8.64 µM
TGI [44]: > 100 µM
TGI [45]: 23.8 µM
GI50 [46]: 5.56 µM
TGI [46]: 20.2 µM
GI50 [47]: 11.2 µM
TGI [47]: 28 µM
GI50 [48]: 6.24 µM
TGI [48]: 17.1 µM
GI50 [49]: 6.43 µM
TGI [49]: 21.3 µM
GI50 [50]: 3.99 µM
TGI [50]: 18.6 µM
GI50 [51]: 4.65 µM
TGI [51]: 26.6 µM
GI50 [52]: 7.59 µM
TGI [52]: 21.1 µM
GI50 [53]: 4.13 µM
TGI [53]: 16.4 µM
GI50 [54]: 6.62 µM
TGI [54]: > 100 µM
